Test results taken from patent US12660819B2, “Herbicidal derivatives” (SYNGENTA CROP PROTECTION AG, priority 2020, dated 2026).

How the values were obtained:
Format in all cases: in vivo
Solanum nigrum (SOLNI) [1] = experiment: Post-emergence Test (glasshouse, percentage damage to the plant); conditions: post-emergence spray, 1000 g/ha unless otherwise stated, evaluated after 13 days
Summary of the method: (§1)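 Spray treatment of sown glasshouse pots at 1000 g/ha (default rate), vehicle acetone/water 50:50 plus 0.5% Tween 20. Read-out: percentage damage after 13 days, converted to a score where 5 denotes 81-100% and 1 denotes 0-20%.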

Lolium perenne (LOLPE) [2] = experiment: as above; conditions: post-emergence spray, 1000 g/ha unless otherwise stated, evaluated after 13 days
Summary of the method: as §1

[3] = tested on: Amaranthus retoflexus (AMARE); experiment: as above; conditions: post-emergence spray, 1000 g/ha unless otherwise stated, evaluated after 13 days
Summary of the method: as §1

Setaria faberi (SETFA) [4] = experiment: as above; conditions: post-emergence spray, 1000 g/ha unless otherwise stated, evaluated after 13 days
Summary of the method: (§2)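 Seeds sown in pots in glasshouse (24/16 °C day/night, 14 h light, 65% humidity), then sprayed with compound at 1000 g/ha unless stated, from acetone/water 50:50 with 0.5% Tween 20. Damage assessed 13 days later on five-point scale (1=0–20% to 5=81–100%).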

[5] = tested on: Echinochloa crus-galli (ECHCG); experiment: as above; conditions: post-emergence spray, 1000 g/ha unless otherwise stated, evaluated after 13 days
Summary of the method: as §1

[6] = tested on: Ipomoea hederacea (IPOHE); experiment: as above; conditions: post-emergence spray, 1000 g/ha unless otherwise stated, evaluated after 13 days
Summary of the method: as §2

Solanum nigrum (SOLNI) [7] = experiment: Pre-emergence Test (glasshouse, percentage damage to the plant); conditions: 1000 g/ha unless otherwise stated, five-point scale
Lolium perenne (LOLPE) [8] = experiment: as above; conditions: 1000 g/ha unless otherwise stated, five-point scale
[9] = tested on: Ipomoea hederacea (IPOHE); experiment: as above; conditions: 1000 g/ha unless otherwise stated, five-point scale
[10] = tested on: Echinochloa crus-galli (ECHCG); experiment: as above; conditions: 1000 g/ha unless otherwise stated, five-point scale
Setaria faberi (SETFA) [11] = experiment: as above; conditions: 1000 g/ha unless otherwise stated, five-point scale
[12] = tested on: Amaranthus retoflexus (AMARE); experiment: as above; conditions: 1000 g/ha unless otherwise stated, five-point scale

Structure (SMILES) | Post-emergence Test SOLNI, percentage damage to the plant (five-point scale) (Solanum nigrum (SOLNI) [1]) | Post-emergence Test LOLPE, percentage damage to the plant (five-point scale) (Lolium perenne (LOLPE) [2]) | Post-emergence Test AMARE, percentage damage to the plant (five-point scale) [3] | Post-emergence Test SETFA, percentage damage to the plant (five-point scale) (Setaria faberi (SETFA) [4]) | Post-emergence Test ECHCG, percentage damage to the plant (five-point scale) [5] | Post-emergence Test IPOHE, percentage damage to the plant (five-point scale) [6] | percentage damage to the plant, SOLNI (Solanum nigrum (SOLNI) [7]) | percentage damage to the plant, LOLPE (Lolium perenne (LOLPE) [8]) | percentage damage to the plant, IPOHE [9] | percentage damage to the plant, ECHCG [10] | percentage damage to the plant, SETFA (Setaria faberi (SETFA) [11]) | percentage damage to the plant, AMARE [12]
CCn1c(C)c(-c2cccnc2)c(=O)c(C(=O)O)c1-c1ccc(Cl)c(Cl)c1 [Compound 19, 2-(3,4-dichlorophenyl)-1-ethyl-6-methyl-4-oxo-5-(3-pyridyl)pyridine-3-carboxylic acid] | 5 (5=81-100%) | 3 (3=41-60%) | 4 (4=61-80%) | 4 (4=61-80%) | 5 (5=81-100%) | 4 (4=61-80%) | 1 (1=0-20%) | 1 (1=0-20%) | 1 (1=0-20%) | 1 (1=0-20%) | 1 (1=0-20%) | 1 (1=0-20%)
CCn1c(C)c(-c2cscc2C)c(=O)c(C(=O)O)c1-c1ccc(Cl)c(Cl)c1 [Compound 20, 2-(3,4-dichlorophenyl)-1-ethyl-6-methyl-5-(4-methyl-3-thienyl)-4-oxo-pyridine-3-carboxylic acid] | 3 (3=41-60%) | 2 (2=21-40%) | 4 (4=61-80%) | 4 (4=61-80%) | 3 (3=41-60%) | 2 (2=21-40%) | 2 (2=21-40%) | 3 (3=41-60%) | 1 (1=0-20%) | 2 (2=21-40%) | 4 (4=61-80%) | 1 (1=0-20%)
CCn1c(C)c(-c2ccc(F)c(Cl)c2)c(=O)c(C(=O)O)c1-c1ccc(Cl)c(Cl)c1 [Compound 22, 5-(3-chloro-4-fluoro-phenyl)-2-(3,4-dichlorophenyl)-1-ethyl-6-methyl-4-oxo-pyridine-3-carboxylic acid] | 4 (4=61-80%) | 2 (2=21-40%) | 5 (5=81-100%) | 4 (4=61-80%) | 2 (2=21-40%) | 3 (3=41-60%) | 2 (2=21-40%) | 2 (2=21-40%) | 1 (1=0-20%) | 1 (1=0-20%) | 3 (3=41-60%) | 2 (2=21-40%)
CCn1c(C)c(-c2cncc(Cl)c2)c(=O)c(C(=O)O)c1-c1ccc(Cl)c(Cl)c1 [Compound 23, 5-(5-chloro-3-pyridyl)-2-(3,4-dichlorophenyl)-1-ethyl-6-methyl-4-oxo-pyridine-3-carboxylic acid] | 1 (1=0-20%) | 1 (1=0-20%) | 3 (3=41-60%) | 4 (4=61-80%) | 3 (3=41-60%) | 3 (3=41-60%) | 1 (1=0-20%) | 1 (1=0-20%) | 1 (1=0-20%) | 1 (1=0-20%) | 5 (5=81-100%) | 1 (1=0-20%)
CCn1c(C)c(-c2ccccc2)c(=O)c(C(=O)O)c1-c1ccc(Cl)c(Cl)c1 [Compound 24, 2-(3,4-dichlorophenyl)-1-ethyl-6-methyl-4-oxo-5-phenyl-pyridine-3-carboxylic acid] | 5 (5=81-100%) | 4 (4=61-80%) | 4 (4=61-80%) | 4 (4=61-80%) | 3 (3=41-60%) | 4 (4=61-80%) | 5 (5=81-100%) | 2 (2=21-40%) | 4 (4=61-80%) | 2 (2=21-40%) | 1 (1=0-20%) | 1 (1=0-20%)
CCn1c(C)c(-c2ccncc2)c(=O)c(C(=O)O)c1-c1ccc(Cl)c(Cl)c1 [Compound 25, 2-(3,4-dichlorophenyl)-1-ethyl-6-methyl-4-oxo-5-pyridin-1-ium-4-yl-pyridine-3-carboxylic acid;2,2,2-trifluoroacetate] | 2 (2=21-40%) | 1 (1=0-20%) | 3 (3=41-60%) | 4 (4=61-80%) | 4 (4=61-80%) | 2 (2=21-40%) | 1 (1=0-20%) | 1 (1=0-20%) | 1 (1=0-20%) | 1 (1=0-20%) | 3 (3=41-60%) | 1 (1=0-20%)
